The values below come from ChEMBL document CHEMBL3044763, “Inhibitory Activities of Rhodanine Derivatives on Plant Growth” (Biosci Biotechnol Biochem, 1996).

The subject of data set [1] is Brassica rapa subsp. oleifera. Description: Growth inhibition of Brassica rapa subsp. oleifera assessed as chlorophyll b level at 3 x 10^-4 M after 7 days. The data set is classed as functional. Details: scale not given: the % may be the effect or the level left.
Data set [2] has as its system Brassica rapa subsp. oleifera. Description: Growth inhibition of Brassica rapa subsp. oleifera assessed as chlorophyll b level at 1 x 10^-4 M after 7 days. It counts as functional. Details: scale not given: the % may be the effect or the level left.
The subject of data set [3] is Brassica rapa subsp. oleifera. Description: Growth inhibition of Brassica rapa subsp. oleifera assessed as chlorophyll a level at 3 x 10^-5 M after 7 days. The data set is classed as functional. Set-up: scale not given: the % may be the effect or the level left.
In data set [4] the test system is Brassica rapa subsp. oleifera. The data set is described as follows: Growth inhibition of Brassica rapa subsp. oleifera assessed as chlorophyll a level at 5 x 10^-5 M after 7 days. It counts as functional. Set-up: scale not given: the % may be the effect or the level left.
The nature of data set [5]: Toxicity in ip dosed Mus musculus ddY (mouse) assessed as mortality after 1 to 7 days. It counts as organism-based. As to conditions: in vivo.
Data set [6] concerns Brassica rapa subsp. oleifera. The data set is described as follows: Growth inhibition of Brassica rapa subsp. oleifera assessed as total chlorophyll level at 5 x 10^-5 M after 7 days. The data set is classed as functional. Set-up: scale not given: the % may be the effect or the level left.
For data set [7], the system named is Brassica rapa subsp. oleifera. The data set is described as follows: Growth inhibition of Brassica rapa subsp. oleifera assessed as total chlorophyll level at 3 x 10^-5 M after 7 days. It counts as functional. Details: scale not given: the % may be the effect or the level left.
Data set [8] concerns Brassica rapa subsp. oleifera. Description: Growth inhibition of Brassica rapa subsp. oleifera assessed as total chlorophyll level at 1 x 10^-4 M after 7 days. It counts as functional. Set-up: scale not given: the % may be the effect or the level left.
Data set [9] deals with Brassica rapa subsp. oleifera. The data set is described as follows: Growth inhibition of Brassica rapa subsp. oleifera assessed as total chlorophyll level at 3 x 10^-4 M after 7 days. It counts as functional. Details: scale not given: the % may be the effect or the level left.
Data set [10] relates to Brassica rapa subsp. oleifera. The data set is described as follows: Growth inhibition of Brassica rapa subsp. oleifera assessed as root growth at 3 x 10^-5 M after 7 days. It counts as functional.
Data set [11] concerns Brassica rapa subsp. oleifera. The data set is described as follows: Growth inhibition of Brassica rapa subsp. oleifera assessed as root growth at 5 x 10^-5 M after 7 days. It counts as functional.
Data set [12] deals with Brassica rapa subsp. oleifera. Description: Growth inhibition of Brassica rapa subsp. oleifera assessed as root growth at 1 x 10^-4 M after 7 days. It counts as functional.
The subject of data set [13] is Brassica rapa subsp. oleifera. The data set is described as follows: Growth inhibition of Brassica rapa subsp. oleifera assessed as root growth at 3 x 10^-4 M after 7 days. The data set is classed as functional.
For data set [14], the system named is Brassica rapa subsp. oleifera. Description: Growth inhibition of Brassica rapa subsp. oleifera assessed as chlorophyll b level at 3 x 10^-5 M after 7 days. Details: scale not given: the % may be the effect or the level left. The data set is classed as functional.
The test system of data set [15] is Brassica rapa subsp. oleifera. The data set is described as follows: Growth inhibition of Brassica rapa subsp. oleifera assessed as chlorophyll b level at 5 x 10^-5 M after 7 days. It counts as functional. Details: scale not given: the % may be the effect or the level left.
In data set [16] the test system is Brassica rapa subsp. oleifera. The data set is described as follows: Growth inhibition of Brassica rapa subsp. oleifera assessed as chlorophyll a level at 1 x 10^-4 M after 7 days. It counts as functional. Set-up: scale not given: the % may be the effect or the level left.
In data set [17] the test system is Brassica rapa subsp. oleifera. Description: Growth inhibition of Brassica rapa subsp. oleifera assessed as chlorophyll a level at 3 x 10^-4 M after 7 days. It counts as functional. Set-up: scale not given: the % may be the effect or the level left.

Where only a bound is given, the exact number is not on record here.

In general, LD50 refers to the dose at which mortality reaches 50%. In the case of `CC(=O)NN1C(=O)CSC1=S` [N-ACETYLAMINORHODANINE], the Activity in data set [1] is listed as 4.23%; in data set [2], 5.41%; in data set [3], 13.68%; in [4], 11.5%; in data set [6] it was 17.47%; in data set [7] it was 20.31%. Further, the Activity in data set [8] is given as 16.24%; in [9], 13.58%; in [12], 47.4 mm; in [13], 39.3 mm; in [14], 6.65%; in data set [15], 5.99%. For the same molecule, the Activity in [16] stood at 10.84%; in data set [17] it was 9.35%. The LD50 in [5] was more than 1000 mg/kg. Further, the results for the Root length in data set [10] and in data set [11] were 47 mm and 46.5 mm, respectively.

Take `O=C(NN1C(=O)CSC1=S)c1ccccc1` [N-BENZOYLAMINORHODANINE]: the Activity in [1] turned out to be 3.1%; in [2] it was 6.15%; in data set [3], 14.44%; in data set [4], 13.43%; in [6], 19.54%; in data set [7], 21.24%. Further, the Activity was found to be 17.6% in data set [8]; 9.62% in data set [9]; 33.8 mm in data set [12]; 19.2 mm in data set [13]; 6.82% in [14]; 6.12% in data set [15]. The Activity in data set [16] came out at 11.46%; in data set [17], 6.53%. For the same molecule, in [5], the 50% lethal dose (LD50) is more than 1000 mg/kg. For the same molecule, the Root length was 79.6 mm in data set [10] and 73.3 mm in data set [11].
